Results published in US20130337564A1, “Treatment of Pluripotent Cells” (Janssen Biotech, Inc., priority 2012, published 2013).

Legend:
Assay type in all cases: cell-based
[1] = test system: Sox17 expression in human embryonic stem cells (H9 line); test: High content screening assay: Sox17 protein expression (differentiation); details: for SOX17 Expression, Fold over Wnt 3a/AA control / fold induction at 10 µM: 10 μM test compound with 100 ng/ml activin A on days 1-2, H9, total intensity by IN Cell Analyzer, strong and moderate hits; for SOX-17 Expression Fold over Wnt 3a/AA control: total intensity normalised to Wnt 3a/AA control; for fold induction at 10 µM: Homo sapiens, Embryonic stem cell, read-out: SOX17 Expression, Fold over Wnt 3a/AA control
Method: (§1) Maintenance of human embryonic stem cells (H9 line) was conducted as described in Example 1. Colonies of cells were maintained in an undifferentiated, pluripotent state with passage on average every four days. Passage was performed by exposing cell cultures to a solution of collagenase (1 mg/ml; Sigma-Aldrich) for 10 to 30 minutes at 37° C. followed by gentle scraping with a pipette tip to recover cell clusters. Clusters were allowed to sediment by gravity, followed by washing to remove residual collagenase. Cell clusters were split at a 1:3 ratio for routine maintenance culture or a 1:1 ratio for immediate assay. The human embryonic stem cell lines used were maintained at passage numbers less than passage 50 and routinely evaluated for normal karyotypic phenotype and absence of mycoplasma contamination.
(§2) Cell clusters used in the assay were evenly resuspended in normal culture medium and plated onto MATRIGEL-coated 96-well Packard VIEWPLATES (PerkinElmer) in volumes of […]. MEF conditioned medium supplemented with 8 ng/ml bFGF was used for initial plating and recovery. Daily feeding was conducted by aspirating spent culture medium from each well and replacing with an equal volume of fresh medium. Plates were maintained at 37° C., 5% CO2 in a humidified box throughout the duration of assay.
(§3) Screening was conducted using test compounds from a proprietary library of small molecules selected for their ability to inhibit GSK-3B enzyme activity. Compounds from this library were made available as 1 mM stocks, in a 96-well plate format in 50 mM HEPES, 30% DMSO. Screening compounds were tested in triplicate or duplicate sets. Primary screening assays were initiated by aspirating culture medium from each well followed by three washes in PBS to remove residual growth factors and serum. Test volumes of 80 to 100 μl per well were added back containing DMEM:F12 base medium (Invitrogen) supplemented with 0.5% FCS (HyClone) and 100 ng/ml activin A (R&D Biosystems) plus 10 μM test compound. Positive control wells contained the same base medium, substituting 10-20 ng/ml Wnt3a (R&D Biosystems) for the test compound. Negative control wells contained base medium with 0.5% FCS and activin A alone (AA only) or alternatively, 0.5% FCS without activin A or Wnt3a (no treatment). Wells were aspirated and fed again with identical solutions on day 2 of assay. On days 3 and 4, all assay wells were aspirated and converted to DMEM:F12 supplemented with 2% FCS and 100 ng/ml activin A (without test compound or Wnt3a); parallel negative control wells were maintained in DMEM:F12 base medium with 2% FCS and activin A (AA only) or alternatively, 2% FCS without activin A (no treatment).
(§4) At the end of culture, cells in 96-well plates were fixed with 4% paraformaldehyde at room temperature for 20 minutes, washed three times with PBS, and then permeabilized with 0.5% Triton X-100 for 20 minutes at room temperature. Alternatively, cells were fixed with ice cold 70% ethanol overnight at −20° C., washed three times with PBS, and then permeabilized with Triton X-100 for 5 minutes at 4° C. After fixing and permeabilizing, cells were washed again three times with PBS and then blocked with 4% chicken serum (Invitrogen) in PBS for 30 minutes at room temperature. Primary antibodies (goat anti-human Sox17 and goat anti-human HNF-3beta; R&D Systems) were diluted 1:100 in 4% chicken serum and added to cells for one hour at room temperature. Alexa Fluor 488 conjugated secondary antibody (chicken anti-goat IgG; Molecular Probes) was diluted 1:200 in PBS and added after washing the cells three times with PBS. To counterstain nuclei, 5 mM Draq5 (Alexis Biochemicals) was added for five minutes at room temperature. Cells were washed once with PBS and left in […] PBS for imaging.
(§5) Cells were imaged using an IN Cell Analyzer 1000 (GE Healthcare) utilizing the 51008bs dichroic for cells stained with Draq5 and Alexa Fluor 488. […]

[2] = test system: human embryonic stem cells (H9 line); test: High content screening assay: cell number (proliferative response); details: for fold induction at 10 µM: Homo sapiens, Embryonic stem cell, read-out: Proliferative Response, Fold over Wnt 3a/AA control
Method: as §1, §2, §3, §4, §5

[3] = test system: HNF-3beta expression in human embryonic stem cells (H9 line); test: High content screening assay: HNF-3beta protein expression (differentiation); details: for HNF-3b Expression Fold over Wnt 3a/AA control: total intensity normalised to Wnt 3a/AA control
Method: as §1, §2, §3, §4, §5

[4] = test system: cells expressing pluripotency markers derived from human embryonic stem cells; test: MTS viability (toxicity) assay of cells expressing pluripotency markers; design: Raw data (duplicate), first replicate / Average: unit not given here; details: for Raw data (duplicate), first replicate / Raw data (duplicate), second replicate: MTS viability assay raw reading; for Raw data (duplicate), first replicate: replicate 1; for Raw data (duplicate), second replicate: replicate 2; for Average: average of duplicate MTS raw readings; for % Control / viability at 10 µM: viability of cells expressing pluripotency markers, relative to control; for viability at 10 µM: Homo sapiens, Embryonic stem cell
Method: Derivation and maintenance of cells expressing pluripotency makers was conducted as has been described in Example 2. Cells were grown in DMEM:F12 supplemented with 2% FCS (Invitrogen), 100 ng/ml Activin A, 20 ng/ml Wnt-3a, and 50 ng/ml IGF (R&D Biosystems). Cells were seeded at a density of 10,000 cells/cm^2 on Falcon polystyrene flasks and grown in monolayer culture at 37° C., 5% CO2, low oxygen. After reaching 60-70% confluence, cells were passed by washing the monolayer with PBS and incubating with TrypLE (Invitrogen) for 3-5 minutes to allow detachment and single cell dispersal.
Screening was conducted using test compounds from a proprietary library of small molecules selected for their ability to inhibit GSK-3B enzyme activity. Compounds from this library were made available as 1 mM stocks, in a 96-well plate format in 50 mM HEPES, 30% DMSO. For assay, cells expressing pluripotency markers were washed, counted, and plated in normal culture medium at a seeding density of 20,000 cells per well in 96-well clear-bottom, dark-well plates (Costar). This seeding density was previously determined to yield optimal monolayer formation in overnight culture. On the following day, culture medium was removed, cell monolayers were rinsed three times with PBS, and test compounds were added to the wells in 80 μl aliquots, each diluted into assay medium at a final assay concentration of 10 μM. On day 2 of the assay, medium was removed from each well and replaced with a fresh aliquot of test compounds diluted into assay medium. Assay medium on days 1 and 2 of culture consisted of DMEM:F12 supplemented with 0.5% FCS and 100 ng/ml Activin A. On days 3 and 4 of culture, medium was removed from each well and replaced with DMEM:F12 supplemented with 2% FCS and 100 ng/ml Activin A (no test compound). On day 4 of assay, 15 μl of MTS (Promega) was added to each well and plates were incubated at 37° C. for 1.5 to 4 hours prior to reading optical density at 490 nm on a SpectraMax (Molecular Devices) instrument. Statistical measures consisting of mean, standard deviation, and coefficient of variation were calculated for each duplicate set. Toxicity was calculated for each test well relative to a positive control (wells treated with Activin A and Wnt3a on days 1 and 2 of culture).
A larger proportion of the compounds have minimal or no measurable toxicity in this cell-based assay.
A small panel of select compounds was repeat tested over a narrow dose titration range, again using cells expressing pluripotency markers in a similar assay as described above.

[5] = 10 μM test compound with 100 ng/ml activin A on days 1-2, H9, total cell number by IN Cell Analyzer, strong and moderate hits
[6] = cell number in the wells analysed for HNF-3b expression
[7] = cell number in the wells analysed for HNF-3b expression, normalised to Wnt 3a/AA control
[8] = cell number in the wells analysed for SOX-17 expression
[9] = cell number in the wells analysed for SOX-17 expression, normalised to Wnt 3a/AA control
[10] = 10 μM test compound with 100 ng/ml activin A on days 1-2, H9, total intensity by IN Cell Analyzer, strong and moderate hits

| SMILES | SOX17 Expression, Fold over Wnt 3a/AA control [1] | SOX-17 Expression Total Intensity [1] | SOX-17 Expression Fold over Wnt 3a/AA control [1] [fold] | Proliferative Response Fold over Wnt 3a/AA control [2, 5] | Proliferative Response Total cells [2, 6] | Proliferative Response Fold over Wnt 3a/AA control [2, 7] [fold] | Proliferative Response Total cells [2, 8] | Proliferative Response Fold over Wnt 3a/AA control [2, 9] [fold] | HNF3β Expression, Fold over Wnt 3a/AA control [3, 10] | HNF-3b Expression Total Intensity [3] | HNF-3b Expression Fold over Wnt 3a/AA control [3] [fold] | Raw data (duplicate), first replicate [4] | Raw data (duplicate), second replicate [4] | Average [4] | % Control [4] [%] | fold induction at 10 µM [1] | fold induction at 10 µM [2, 5] | fold induction at 10 µM ([3]; Homo sapiens, Embryonic stem cell, 10 μM test compound with 100 ng/ml activin A on days 1-2, H9, total intensity by IN Cell Analyzer, strong and moderate hits, read-out: HNF3β Expression, Fold over Wnt 3a/AA control) | viability at 10 µM [4] [%] |
| --- | --- | --- | --- | --- | --- | --- | --- | --- | --- | --- | --- | --- | --- | --- | --- | --- | --- | --- | --- |
| O=C1NC(=O)C2=C1c1cn(c3ncccc13)CCOCCOCCOCCOCCn1cc2c2cccnc21 [Compound 6, 10,11,13,14,16,17,19,20,22,23-Decahydro-1H-9,4:24,29-di(metheno)dipyrido[2,3-n:3′,2′-t]pyrrolo[3,4-q][1,4,7,10,13,22]tetraoxadiazacyclotetracosine-1,3(2H)-dione] | 0.9706 Fold over Wnt 3a/AA control | 363855000 | 0.9706 | 1.9264 Fold over Wnt 3a/AA control | 9728 | 1.926 | 9964.5 | 1.25 | 1.3832 Fold over Wnt 3a/AA control | 635655000 | 1.3832 | 0.706 | 0.672 | 0.689 | 83.9 | – | – | – | – |
| CN(C)CCCn1nc(C2=C(c3cn(-c4cccc5ccccc45)c4ccccc34)C(=O)NC2=O)c2ccccc21 [Compound 8] | – | 319930000 | – | – | 5096 | – | 5706.5 | – | – | 341360000 | – | 0.165 | 0.154 | 0.159 | – | 0.853 | 1.01 | 0.743 | 5.2 |
| COCCN1CCOCCn2cc(c3ccccc32)C2=C(C(=O)NC2=O)c2nn(c3ccccc23)CCOCC1 [Compound 10, 11-(2-Methoxyethyl)-6,7,10,11,12,13,15,16-octahydro-9H,23H-5,26-(azeno)-17,22-(metheno)dibenzo[k,q]pyrrolo[3,4-n][1,7,4,10,19]dioxatriazacyclohenicosine-23,25(24H)-dione] | 0.6864 Fold over Wnt 3a/AA control | 257295000 | 0.6864 | 0.8926 Fold over Wnt 3a/AA control | 4507 | 0.8926 | 4645.5 | 0.5829 | 0.6803 Fold over Wnt 3a/AA control | 312605000 | 0.6803 | 0.601 | 0.620 | 0.611 | 72.2 | – | – | – | – |
| O=C1CCCCn2cc(c3cccnc32)C2=C(C(=O)NC2=O)c2cn(c3ncccc23)CCCC1 [Compound 11, 8,9,11,12,13,14-Hexahydro-6H,21H-5,24:15,20-di(metheno)dipyrido[2,3-b:3′,2′-h]pyrrolo[3,4-e][1,10]diazacyclononadecine-10,21,23(7H,22H)-trione] | 0.5686 Fold over Wnt 3a/AA control | 213165000 | 0.5686 | 0.6025 Fold over Wnt 3a/AA control | 3043 | 0.6025 | 2892.5 | 0.363 | 0.5866 Fold over Wnt 3a/AA control | 269570000 | 0.5866 | 0.743 | 0.638 | 0.691 | 84.1 | – | – | – | – |
| CN(C)CCCn1cc(C2=C(c3ccccc3Cl)C(=O)NC2=O)c2cccnc21 [Compound 12, 3-(2-Chlorophenyl)-4-{1-[3-(dimethylamino)propyl]-1H-pyrrolo[2,3-b]pyridin-3-yl}-1H-pyrrole-2,5-dione] | – | 203350000 | – | – | 2410 | – | 2460.5 | – | – | 209795000 | – | 0.148 | 0.152 | 0.150 | – | – | – | – | 4.8 |
| O=C1NC(=O)C(c2nn(CCCO)c3ccccc23)=C1c1cn(-c2ccc3ccccc3c2)c2ccccc12 [Compound 13] | – | 306085000 | – | – | 4556 | – | 4783 | – | 0.7104 Fold over Wnt 3a/AA control | 326475000 | – | 0.767 | 0.789 | 0.778 | – | 0.817 | 0.902 | – | 92.6 |
